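All cell lines were grown in 96-well plates and treated with compound for 48 hours. Here, GI50 denotes the concentration required for 50% inhibition of growth.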 Activity calls are given as the source filed them. No stated cut-off is given here; in the data, active = GI50 up to about 1.1 µM and inactive = higher.
Legend:
Test in all cases: DTP human tumour cell line panel, 48 h
DU-145 = test system: DU-145
U-251 = test system: U-251
SR = test system: SR
SNB-19 = test system: SNB-19
CAKI-1 = test system: CAKI-1
PC-3 = test system: PC-3
OVCAR-8 = test system: OVCAR-8
HL-60 = test system: HL-60
SF-295 = test system: SF-295
K562 = test system: K562
NCI-H522 = test system: NCI-H522
OVCAR-5 = test system: OVCAR-5
RXF 393 = test system: RXF 393
CCRF-CEM = test system: CCRF-CEM
MOLT-4 = test system: MOLT-4
NCI/ADR-RES = test system: NCI/ADR-RES
SK-MEL-28 = test system: SK-MEL-28
OVCAR-3 = test system: OVCAR-3
NCI-H460 = test system: NCI-H460
UO-31 = test system: UO-31

For `BrCCC[P+](c1ccccc1)(c1ccccc1)c1ccccc1`, the GI50 (DU-145) was 32.7 µM (inactive), the GI50 (U-251) was 6.32 µM (inactive) and the GI50 (SR) was 3.83 µM (inactive). The GI50 (SNB-19) was 16.6 µM (inactive), the GI50 (CAKI-1) was > 100 µM (inactive) and the GI50 (PC-3) was 5.65 µM (inactive). The GI50 (OVCAR-8) was 12.4 µM (inactive), the GI50 (HL-60) was 1.18 µM (inactive) and the GI50 (SF-295) was 40.8 µM (inactive). The GI50 (K562) was 3.16 µM (inactive), the GI50 (NCI-H522) was 3.34 µM (inactive) and the GI50 (OVCAR-5) was 56.1 µM (inactive). For the same compound, the GI50 (RXF 393) was 2.89 µM (inactive), the GI50 (CCRF-CEM) was > 30.5 µM (inactive) and the GI50 (MOLT-4) was 9.66 µM (inactive). For the same compound, the GI50 (NCI/ADR-RES) was > 100 µM (inactive), the GI50 (SK-MEL-28) was 19 µM (inactive) and the GI50 (OVCAR-3) was 3.44 µM (inactive). For the same compound, the GI50 (NCI-H460) was 15.2 µM (inactive) and the GI50 (UO-31) was > 100 µM (inactive).

For `C[C@]12CC[C@@H]3c4ccc(O)cc4CC[C@H]3[C@@H]1C/C(=C\c1ccc(C#N)cc1)C2=O`, the GI50 (DU-145) was 57.4 µM (inactive), the GI50 (U-251) was 24.7 µM (inactive) and the GI50 (SR) was 50 µM (inactive). For the same compound, the GI50 (SNB-19) was 52.4 µM (inactive), the GI50 (CAKI-1) was 82.8 µM (inactive) and the GI50 (PC-3) was 18.6 µM (inactive). For the same compound, the GI50 (OVCAR-8) was 55.5 µM (inactive), the GI50 (SF-295) was 71.6 µM (inactive) and the GI50 (K562) was > 100 µM (inactive). For the same compound, the GI50 (NCI-H522) was 17.4 µM (inactive), the GI50 (OVCAR-5) was 71.8 µM (inactive) and the GI50 (RXF 393) was 14.6 µM (inactive). The GI50 (CCRF-CEM) was 34.4 µM (inactive), the GI50 (MOLT-4) was 23.5 µM (inactive) and the GI50 (NCI/ADR-RES) was 59.3 µM (inactive). The GI50 (SK-MEL-28) was 36.2 µM (inactive), the GI50 (OVCAR-3) was 21.9 µM (inactive) and the GI50 (NCI-H460) was 36.1 µM (inactive). The GI50 (UO-31) was 46.9 µM (inactive).

For `COC(=O)c1ccc(NCc2cc(O)ccc2O)cc1`, the GI50 (DU-145) was 12.4 µM (inactive), the GI50 (U-251) was 9.79 µM (inactive) and the GI50 (SR) was 1.58 µM (inactive). For the same compound, the GI50 (SNB-19) was 22.7 µM (inactive), the GI50 (CAKI-1) was 21.3 µM (inactive) and the GI50 (PC-3) was 4.39 µM (inactive). For the same compound, the GI50 (OVCAR-8) was 11.6 µM (inactive), the GI50 (HL-60) was 1.69 µM (inactive) and the GI50 (SF-295) was 18.2 µM (inactive). For the same compound, the GI50 (K562) was 4 µM (inactive), the GI50 (NCI-H522) was 0.841 µM (active) and the GI50 (OVCAR-5) was 15 µM (inactive). For the same compound, the GI50 (RXF 393) was 6.73 µM (inactive), the GI50 (CCRF-CEM) was 1.51 µM (inactive) and the GI50 (MOLT-4) was 3.19 µM (inactive). For the same compound, the GI50 (NCI/ADR-RES) was 3.08 µM (inactive), the GI50 (SK-MEL-28) was 18.9 µM (inactive) and the GI50 (OVCAR-3) was 10.9 µM (inactive). For the same compound, the GI50 (NCI-H460) was 23.6 µM (inactive) and the GI50 (UO-31) was 8 µM (inactive).

For `CN1CCN(Cc2cc3c(nn2)-c2ccccc2C3=O)CC1`, the GI50 (DU-145) was > 100 µM (inactive), the GI50 (U-251) was 44.3 µM (inactive) and the GI50 (SR) was 18.3 µM (inactive). For the same compound, the GI50 (SNB-19) was 43.5 µM (inactive), the GI50 (CAKI-1) was > 100 µM (inactive) and the GI50 (PC-3) was 37.8 µM (inactive). The GI50 (OVCAR-8) was 95.7 µM (inactive), the GI50 (HL-60) was 21 µM (inactive) and the GI50 (SF-295) was > 100 µM (inactive). For the same compound, the GI50 (K562) was 47.1 µM (inactive), the GI50 (NCI-H522) was 14.3 µM (inactive) and the GI50 (OVCAR-5) was > 100 µM (inactive). For the same compound, the GI50 (RXF 393) was > 100 µM (inactive), the GI50 (CCRF-CEM) was 54.6 µM (inactive) and the GI50 (MOLT-4) was 38.7 µM (inactive). The GI50 (NCI/ADR-RES) was 50.1 µM (inactive), the GI50 (NCI-H460) was 34.4 µM (inactive) and the GI50 (UO-31) was 32.7 µM (inactive).

For `CC(SCc1ccccc1)C(=O)O` (stereo unspecified), the GI50 (DU-145) was > 100 µM (inactive), the GI50 (U-251) was > 100 µM (inactive) and the GI50 (SR) was > 100 µM (inactive). For the same compound, the GI50 (SNB-19) was > 100 µM (inactive), the GI50 (CAKI-1) was > 100 µM (inactive) and the GI50 (PC-3) was > 100 µM (inactive). For the same compound, the GI50 (OVCAR-8) was > 100 µM (inactive), the GI50 (HL-60) was > 100 µM (inactive) and the GI50 (SF-295) was > 100 µM (inactive). The GI50 (K562) was > 100 µM (inactive), the GI50 (NCI-H522) was > 100 µM (inactive) and the GI50 (OVCAR-5) was > 100 µM (inactive). For the same compound, the GI50 (RXF 393) was > 100 µM (inactive), the GI50 (CCRF-CEM) was > 100 µM (inactive) and the GI50 (MOLT-4) was > 100 µM (inactive). The GI50 (NCI/ADR-RES) was > 100 µM (inactive), the GI50 (SK-MEL-28) was > 100 µM (inactive) and the GI50 (OVCAR-3) was > 100 µM (inactive). The GI50 (NCI-H460) was > 100 µM (inactive) and the GI50 (UO-31) was > 100 µM (inactive).

For `COc1cc(/C=C2/Oc3c(OC)cccc3C2=O)ccc1O`, the GI50 (DU-145) was 49.1 µM (inactive), the GI50 (U-251) was > 100 µM (inactive) and the GI50 (SR) was 29.9 µM (inactive). For the same compound, the GI50 (SNB-19) was 91 µM (inactive), the GI50 (CAKI-1) was 36.5 µM (inactive) and the GI50 (PC-3) was 43.9 µM (inactive). The GI50 (OVCAR-8) was > 100 µM (inactive), the GI50 (HL-60) was 36.6 µM (inactive) and the GI50 (SF-295) was 54 µM (inactive). For the same compound, the GI50 (K562) was > 100 µM (inactive), the GI50 (NCI-H522) was 24.7 µM (inactive) and the GI50 (OVCAR-5) was > 100 µM (inactive). The GI50 (RXF 393) was 90.2 µM (inactive), the GI50 (CCRF-CEM) was 60.1 µM (inactive) and the GI50 (MOLT-4) was 50.4 µM (inactive). The GI50 (NCI/ADR-RES) was > 10 µM (inactive), the GI50 (SK-MEL-28) was > 100 µM (inactive) and the GI50 (OVCAR-3) was 61.2 µM (inactive). The GI50 (NCI-H460) was 32.4 µM (inactive) and the GI50 (UO-31) was 63 µM (inactive).

In the case of `CN(C)c1ccc(/N=N/c2ccc3[nH]cnc3c2)cc1`, the GI50 (DU-145) is reported as 27.4 µM (inactive), the GI50 (U-251) is reported as 24.5 µM (inactive) and the GI50 (SR) is reported as 25.1 µM (inactive). The GI50 (SNB-19) was 41.8 µM (inactive), the GI50 (CAKI-1) was 42.2 µM (inactive) and the GI50 (PC-3) was 33.1 µM (inactive). The GI50 (OVCAR-8) was 38.4 µM (inactive), the GI50 (HL-60) was 14.7 µM (inactive) and the GI50 (SF-295) was 24.4 µM (inactive). The GI50 (K562) was 19.5 µM (inactive), the GI50 (NCI-H522) was 19.3 µM (inactive) and the GI50 (OVCAR-5) was 26.5 µM (inactive). The GI50 (RXF 393) was 27.1 µM (inactive), the GI50 (CCRF-CEM) was 19.4 µM (inactive) and the GI50 (MOLT-4) was 21.8 µM (inactive). The GI50 (NCI/ADR-RES) was 41 µM (inactive), the GI50 (SK-MEL-28) was 11.5 µM (inactive) and the GI50 (NCI-H460) was 18.8 µM (inactive). For the same compound, the GI50 (UO-31) was 28.4 µM (inactive).

— ChEMBL document CHEMBL1201862, “PubChem BioAssay data set” (2004)
